Data taken from patent publication US9981972B2, “N-hydroxy bicyclic hydantoin carbamates as tools for identification of serine hydrolase targets” (ABIDE THERAPEUTICS, INC., priority 2014, dated 2018).
“Also recorded” adds a separate entry of the source. Where two headings read alike, the source gives them in different places. One block for each molecule: values may come before it.

Assays:
[1] = biological target: T1, ABHD4 (Homo sapiens, UniProt Q8TB40); test: NAPE substrate hydrolysis assay, ABHD4-transfected HEK293T cell lysates; type: biochemical; details: lysates from ABHD4-transfected HEK293T cells
T1 sequence (Q8TB40 1-342): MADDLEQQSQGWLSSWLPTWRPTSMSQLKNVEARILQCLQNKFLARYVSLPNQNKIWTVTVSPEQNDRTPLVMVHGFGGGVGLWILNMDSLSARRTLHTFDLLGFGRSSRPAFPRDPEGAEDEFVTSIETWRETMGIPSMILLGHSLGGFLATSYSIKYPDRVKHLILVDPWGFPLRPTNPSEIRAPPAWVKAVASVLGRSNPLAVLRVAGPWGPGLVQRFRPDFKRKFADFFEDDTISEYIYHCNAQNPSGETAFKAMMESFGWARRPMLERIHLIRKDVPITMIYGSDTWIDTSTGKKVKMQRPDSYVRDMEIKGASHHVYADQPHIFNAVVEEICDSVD
Experimental: NAPE hydrolysis was measured by following the release of oleic acid from the NAPE substrate (1,2-dioleoyl-sn-glycero-3-phospho (N-arachidonoyl) ethanolamine).

[2] = biological target: T2, PPT1 (Homo sapiens, UniProt P50897); test: In situ inhibition of hPPT1 in transfected HEK293T cells, competitive ABPP with Compound 39 probe; type: cell-based; set-up: expressed in transfected cells; host or cells: HEK293T
T2 sequence (P50897 28-306): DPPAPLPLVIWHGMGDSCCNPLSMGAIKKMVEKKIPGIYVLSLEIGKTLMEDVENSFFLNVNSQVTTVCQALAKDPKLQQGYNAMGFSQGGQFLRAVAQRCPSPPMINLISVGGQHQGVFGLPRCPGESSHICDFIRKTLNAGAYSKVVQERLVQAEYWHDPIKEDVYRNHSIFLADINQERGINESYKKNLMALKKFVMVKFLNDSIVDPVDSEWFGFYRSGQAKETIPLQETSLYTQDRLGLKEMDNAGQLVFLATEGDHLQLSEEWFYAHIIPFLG
Experimental: HEK293T cells were seeded at 2×10^5 per well on 6 well plates and grown for 48 h. They were then transfected with mABHD3 (pCMV-Sport6), hABHD4 (pcDNA3.1/myc-his), hPPT1 (pCMV6-XL5), or hPPT1 S115A (pCMV6-XL5), by incubating 0.5 μg of DNA with 3 μL of PEI MAX (1 mg/mL, Polysciences, Inc) in serum-free DMEM for 30 min, then adding them to cells. After 48 h cells were either treated with compound in situ, as described above, or harvested for in vitro studies. The […] PPT1 mutation was introduced using QuikChange II Site Directed Mutagenesis Kit (Agilent) with the following primers: […]
(§1) In situ inhibitor treatments of human cell lines were performed as described previously (Hsu et al., J Med Chem 56, 8270-8279, 2012). Briefly, PC3 or transfected HEK293T cells were grown to confluency in serum-containing media (RPMI or DMEM, respectively). The culture media was then removed and replaced with fresh media containing DMSO or inhibitor at the desired concentration and incubated for 4 hours in a tissue culture incubator (37° C., 5% CO2). Cells were then washed with PBS, harvested, washed with PBS once more, and lysed with a probe sonicator.
This possibility was explored by treating HEK293T cells transfected with human PPT1 (hPPT1) with Compound 37 (5 μM, 4 h pre-treatment) or DMSO followed by cell lysis and treatment with Compound 39 (5 μM, 1 h). A strong, but diffuse Compound 37-sensitive, Compound 39-labeled protein band was detected by gel-based ABPP in hPPT1-transfected, but not mock-transfected cell lysates (see FIG. 14), and this diffuse signal was compressed to a tight, faster-migrating band matching the predicted molecular weight of PPT1 following treatment with the glycosidase PNGaseF (see FIG. 14). Western blotting with an anti-PPT1 antibody confirmed a similar migration pattern for hPPT1 protein in transfected cell lysates (see FIG. 14, bottom panel).
A structurally diverse panel of N-hydroxy bicyclic hydantoin carbamates were assayed at 2 or 0.2 μM for in situ inhibition of hPPT1 in transfected HEK293T cells.

[3] = biological target: T3, endogenous PPT1 (Homo sapiens, UniProt P50897); test: PPT1 substrate assay, PC3 cells treated in situ; type: cell-based; details: 4 h in situ; for reduction in 4-MUBO hydrolysis activity versus DMSO: 500 nM inhibitor
T3 construct: endogenous in cells; host or cells: PC3
T3 sequence (P50897 28-306): T2 sequence (P50897 28-306)
Experimental: PPT1 activity was assessed in vitro using a substrate assay adapted from previous studies (van Diggelen et al., Molecular genetics and metabolism 66, 240-244, 1999). Lysates from HEK293T cells transfected with an empty vector, or human PPT1 under a CMV promoter were adjusted to 1 mg/ml in PBS (25 μl), and then combined 1:1 with Mcllvain's phosphate/citrate buffer containing 0.375% (v/v) Triton-X 100 and 15 mM DTT (pH 5.0). This sample was pre-treated with inhibitor or DMSO for 30 minutes at 37° C., and 10 μl (5 μg protein) was used in the substrate assay as follows: Samples were diluted in a black 96-well plate (half-area) with 20 μl McIlvain's phosphate/citrate buffer (pH 5.0) containing 0.375% TX-100 and 15 mM DTT, as well as 0.64 mM MU-6S-Palm-PD-Glc and 0.1 U sweet almond glucosidase (Sigma). The reactions were incubated at 37° C. for 1 hour, quenched with 120 μl sodium bicarbonate buffer (pH 10.0), and hydrolysis by 4-MU fluorescence measured by excitement at […] and emission intensity at […]. 16 μg protein was used for analysis of native PC3 cells.
as §1
Compound 26 was then tested to see if it inhibited PPT1 activity using a substrate assay. […] In this assay, PPT1 hydrolyzes the substrate's palmitoyl thioester bond, and exogenous sweet almond β-glucosidase deglycosylates and frees the fluorophore, 4-methylumbelliferone (4-MU), which is measured to assess PPT1 activity.

[4] = biological target: T4, ABHD3 (Homo sapiens, UniProt Q8WU67); test: ABPP-SILAC, PC3 cells treated in situ; type: cell-based; details: 4 h in situ, FP-biotin
T4 construct: endogenous in cells; host or cells: PC3
Experimental: as §1
The activity and selectivity of dual ABHD3/4 and ABHD4-preferring inhibitors in PC3 cells by ABPP-SILAC was assessed. Isotopically heavy and light PC3 cells were treated in situ with inhibitor (Compound 37 (1 μM) or Compound 38 (0.5 μM)) or DMSO for 4 h and then lysed and processed for ABPP-SILAC analysis.

[5] = hPPT1-transfected HEK293T cells, in situ, read-out: hPPT1 (in situ), IC50

T4 sequence (Q8WU67 whole entry): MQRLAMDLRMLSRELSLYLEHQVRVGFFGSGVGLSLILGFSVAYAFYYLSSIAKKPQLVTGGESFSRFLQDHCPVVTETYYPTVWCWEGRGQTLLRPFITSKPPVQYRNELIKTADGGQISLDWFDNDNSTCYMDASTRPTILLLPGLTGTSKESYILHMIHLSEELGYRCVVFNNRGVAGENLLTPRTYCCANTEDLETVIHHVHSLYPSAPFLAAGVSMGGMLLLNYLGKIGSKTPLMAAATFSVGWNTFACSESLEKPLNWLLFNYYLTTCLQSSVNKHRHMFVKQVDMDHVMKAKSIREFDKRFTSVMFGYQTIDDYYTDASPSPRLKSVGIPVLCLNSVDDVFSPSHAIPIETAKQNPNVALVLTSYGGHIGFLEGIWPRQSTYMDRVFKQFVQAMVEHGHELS

- IC50 [2, 5]: 0.5 µM
SMILES: O=C(ON1C(=O)C2CN(C(=O)N3CCOCC3)CCN2C1=O)N1CCC(CCc2ccc(Cl)cc2)CC1 (centres unmarked) [Compound 1, 7-(morpholine-4-carbonyl)-1,3-dioxohexahydroimidazo[1,5-a]pyrazin-2(3H)-yl 4-(4-chloro-phenethyl)piperidine-1-carboxylate]
- effect on NAPE hydrolysis activity of ABHD4 [1]: neither Compound 26 nor Compound 1 altered

- reduction in 4-MUBO hydrolysis activity versus DMSO [3]: substantial reductions
- reduction in endogenous PPT1 activity ([3]; 500 nM, MU-6S-Palm-βD-Glc substrate assay): 90%
- in situ inhibition of hPPT1 at 200 nM ([2]; 200 nM, transfected HEK293T cells): complete inhibition
- IC50 ([2]; gel-based competitive ABPP, read-out: in situ IC50 for recombinant PPT1): 0.1 µM
SMILES: COc1ccc(N2CCN(C(=O)ON3C(=O)C4CN(CC5CCN(Cc6ccccc6)CC5)CCN4C3=O)CC2)cc1 (centres unmarked) [Compound 26, 7-((1-benzylpiperidin-4-yl)methyl)-1,3-dioxohexahydroimidazo[1,5-a]pyrazin-2(3H)-yl 4-(4-methoxyphenyl)piperazine-1-carboxylate]
- effect on NAPE hydrolysis activity of ABHD4 [1]: neither Compound 26 nor Compound 1 altered

- IC50 [1]: 0.5 µM
- reduction in 4-MUBO hydrolysis activity versus DMSO [3]: not
- IC50 [2, 5]: 3.9 µM
SMILES: O=C(ON1C(=O)C2CN(Cc3ccc(Oc4ccccc4)cc3)CCN2C1=O)N1CCOCC1 (centres unmarked) [Compound 34, 1,3-dioxo-7-(4-phenoxybenzyl)hexahydroimidazo[1,5-a]pyrazin-2(3H)-yl morpholine-4-carboxylate]

- inhibition at 1 µM ([4]; PC-3, 1 μM): ~80%
- hPPT1 (in situ), % @ 2 μM ([2]; 2 μM, hPPT1-transfected HEK293T cells, in situ): 100% @ 2 μM
SMILES: COc1ccc(N2CCN(C(=O)ON3C(=O)C4CN(Cc5ccc(Oc6ccccc6)cc5)CCN4C3=O)CC2)cc1 (centres unmarked) [Compound 37, 1,3-dioxo-7-(4-phenoxybenzyl)hexahydroimidazo[1,5-a]pyrazin-2(3H)-yl 4-(4-methoxyphenyl)piperazine-1-carboxylate]
- reaction with hPPT1 / blockade of Compound 39 labeling ([2]; 5 μM, 4 h pre-treatment, hPPT1-transfected HEK293T cells): blocked; also recorded: reacted with PPT1

- inhibition of ABHD3 in PC3 cells ([4]; 0.5 μM): inhibit both ABHD3 and ABHD4
SMILES: O=C(ON1C(=O)C2CN(Cc3ccc(Oc4ccccc4)cc3)CCN2C1=O)N1CCC(c2ccccc2)CC1 (centres unmarked) [Compound 38, 1,3-dioxo-7-(4-phenoxybenzyl)hexahydroimidazo[1,5-a]pyrazin-2(3H)-yl 4-phenylpiperidine-1-carboxylate]
